Test results as given in US20260374739A1, “SMALL MOLECULAR WEIGHT CHEMICAL COMPOUND TO ANTAGONIZE EPH-EPHRIN TETRAMERIZATION AND INHIBIT BIDIRECTIONAL SIGNALING” (THE BOARD OF REGENTS OF THE UNIVERSITY OF TEXAS SYSTEM, priority 2022, published 2026).
Several values for one entry are separate records, joined by “and”; a condition that tells them apart may be missing. Equal values may be shown once. Read-outs that look alike come from different tables or passages of the source. Blank lines part the entries; values can stand above or below the molecule they belong to.

Legend:
[1] = target: T1, EphrinB2-EphB2 (Homo sapiens, UniProt P29323); experiment: Octet tetramerization inhibition, immobilized human EphrinB2 binding to 50 nM soluble human EphB2
T1 construct: soluble human EphB1-His, EphB2-His, and EphB4-His ectodomains; commercially available human EphrinB1-Fc (EB1), EphrinB2-Fc (EB2), and EphrinB3-Fc (EB3) ectodomain proteins; purchased
T1 sequence (P29323 19-543 limits assumed): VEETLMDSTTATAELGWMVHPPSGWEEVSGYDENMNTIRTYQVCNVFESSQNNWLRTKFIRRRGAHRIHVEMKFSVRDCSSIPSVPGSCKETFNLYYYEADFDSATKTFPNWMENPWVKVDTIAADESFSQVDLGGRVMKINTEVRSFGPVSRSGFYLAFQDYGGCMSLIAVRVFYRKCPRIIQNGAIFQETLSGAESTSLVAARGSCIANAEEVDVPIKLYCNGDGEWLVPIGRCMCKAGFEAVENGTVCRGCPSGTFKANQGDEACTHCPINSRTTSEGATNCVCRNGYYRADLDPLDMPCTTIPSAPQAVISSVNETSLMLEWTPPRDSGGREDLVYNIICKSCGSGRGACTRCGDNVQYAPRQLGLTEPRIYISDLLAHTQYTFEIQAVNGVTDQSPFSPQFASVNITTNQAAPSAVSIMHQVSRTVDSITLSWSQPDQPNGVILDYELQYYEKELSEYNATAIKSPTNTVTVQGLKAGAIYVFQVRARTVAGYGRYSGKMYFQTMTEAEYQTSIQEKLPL

[2] = target: T2, EphrinB2-EphB1 (Homo sapiens, UniProt P54762); experiment: Octet 80 sec association/500 sec dissociation, immobilized human EphrinB2-Fc binding to soluble human EphB1-His; details: for inhibition: highest dose, typically 3.2 μM; for EphB1 Inhibition Percent, Inhibition of Association ONLY: at 3.2 μM and 80 seconds; for EphB1 Inhibition Percent, Inhibition of Association ONLY / EphB1 Inhibition Percent, Inhibition of Association-Dissociation: immobilized human EphrinB2, 25 nM soluble human EphB1; for EphB1 Inhibition Percent, Inhibition of Association-Dissociation: at 3.2 μM and 580 seconds
T2 construct: soluble human EphB1-His, EphB2-His, and EphB4-His ectodomains; commercially available human EphrinB1-Fc (EB1), EphrinB2-Fc (EB2), and EphrinB3-Fc (EB3) ectodomain proteins; purchased
T2 sequence (P54762 18-540 limits assumed): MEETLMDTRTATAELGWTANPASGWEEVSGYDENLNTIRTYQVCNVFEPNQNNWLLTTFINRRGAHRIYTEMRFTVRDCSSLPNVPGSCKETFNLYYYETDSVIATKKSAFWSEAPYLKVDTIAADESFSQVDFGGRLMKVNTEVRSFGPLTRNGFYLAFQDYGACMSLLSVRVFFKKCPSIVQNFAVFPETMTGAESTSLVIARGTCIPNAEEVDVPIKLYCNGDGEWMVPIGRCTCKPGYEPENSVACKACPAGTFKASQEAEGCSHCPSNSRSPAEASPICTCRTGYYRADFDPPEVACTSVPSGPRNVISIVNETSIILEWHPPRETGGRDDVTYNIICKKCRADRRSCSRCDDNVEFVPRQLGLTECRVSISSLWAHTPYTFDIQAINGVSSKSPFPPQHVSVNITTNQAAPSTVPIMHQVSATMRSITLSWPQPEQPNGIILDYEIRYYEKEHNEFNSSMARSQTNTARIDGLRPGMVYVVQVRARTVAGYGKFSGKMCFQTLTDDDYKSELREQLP
In short: (§1)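 EphrinB2-Fc captured on AHC biosensors, then soluble His-tagged EphB ectodomain (25 nM for % inhibition runs) associated 80 s and dissociated 500 s in PBS, 0.05% Tween-20, 1% DMSO ± compound. Compounds tested at 0.1–3.2 μM with a 10 μM max standard; IC50 from AUC of full traces or at 75 s and 135 s.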

[3] = target: T1, EphrinB2-EphB2; experiment: Octet 80 sec association/500 sec dissociation, immobilized human EphrinB2-Fc binding to soluble human EphB2-His; details: for IC50 / inhibition: EphB2; for inhibition: highest dose, typically 3.2 μM; for EphB2 Inhibition Percent, Inhibition of Association ONLY: at 3.2 μM and 80 seconds; for EphB2 Inhibition Percent, Inhibition of Association ONLY / EphB2 Inhibition Percent, Inhibition of Association-Dissociation: immobilized human EphrinB2, 25 nM soluble human EphB2; for EphB2 Inhibition Percent, Inhibition of Association-Dissociation: at 3.2 μM and 580 seconds
In short: as §1

[4] = Absolute AUC/IC50, Table A, EphrinB2-EphB2
[5] = Absolute Association IC50 (300 sec), Table A, EphrinB2-EphB2
[6] = Absolute Dissociation IC50 (450 sec), Table A, EphrinB2-EphB2
[7] = Relative AUC/IC50, Table A, EphrinB2-EphB2, compound 7: association only
[8] = Relative Association IC50 (300 sec), Table A, EphrinB2-EphB2
[9] = Relative Dissociation IC50 (450 sec), Table A, EphrinB2-EphB2
[10] = tetramerization inhibitor IC50 (relative), association step, surmountable tetramer

inhibition of unsurmountable tetramer [1]: 100% | IC50 [1, 4]: 360 nM and 530 nM and 590 nM and 510 nM | IC50 [1, 5]: 380 nM and 580 nM and 680 nM and 780 nM | IC50 [1, 6]: 350 nM and 400 nM and 580 nM and 630 nM | IC50 [1, 7]: 220 nM and 370 nM and 230 nM and 320 nM | IC50 [1, 8]: 300 nM and 330 nM (2×) and 400 nM | IC50 [1, 9]: 300 nM and 420 nM and 370 nM | IC50 [1, 10]: ~300 nM | IC50 ([1]; tetramerization inhibitor IC50, surmountable tetramer): ~300 nM | % Inhibited (AUC), Association + Dissociation ([2]; EphB1, 0-160 sec, 50 nM, 10 μM compound, Table 4): 38.6% | % Inhibited (AUC), Association ([2]; EphB1, 50 nM, 10 μM compound, Table 4): 24.7% | IC50 ([2]; EphB1, Association (75″), read-out: Absolute IC50): > 3200 nM | IC50 ([2]; EphB1, Association (75″), read-out: Relative IC50): 100 nM | IC50 ([2]; EphB1, Association (AUC), read-out: Absolute IC50): > 3200 nM | IC50 ([2]; EphB1, Association (AUC), read-out: Relative IC50): 100 nM | IC50 ([2]; EphB1, Dissociation (135″), read-out: Absolute IC50): 360 nM | IC50 ([2]; EphB1, Dissociation (135″), read-out: Relative IC50): 80 nM | IC50 ([2]; EphB1, Full AUC, read-out: Absolute IC50): 500 nM | IC50 ([2]; EphB1, Full AUC, read-out: Relative IC50): 170 nM | inhibition ([2]; EphB1, read-out: Association (% Inhibited (AUC))): 39.1% | inhibition ([2]; EphB1, read-out: Association + Dissociation (% Inhibited (AUC))): 53.1% | IC50 ([3]; Association (75″), read-out: Absolute IC50): 320 nM | IC50 ([3]; Association (75″), read-out: Relative IC50): 280 nM | IC50 ([3]; Association (AUC), read-out: Absolute IC50): 360 nM | IC50 ([3]; Association (AUC), read-out: Relative IC50): 280 nM | IC50 ([3]; Dissociation (135″), read-out: Absolute IC50): 250 nM | IC50 ([3]; Dissociation (135″), read-out: Relative IC50): 230 nM | IC50 ([3]; Full AUC, read-out: Absolute IC50): 200 nM | IC50 ([3]; Full AUC, read-out: Relative IC50): 180 nM | inhibition ([3]; read-out: Association (% Inhibited (AUC))): 62.5% | inhibition ([3]; read-out: Association + Dissociation (% Inhibited (AUC))): 78.7%
Compound: Oc1c(Br)cc(CN2CCN(c3ccc(Br)cc3)CC2)c2cccnc12 [Compound 28, 7-bromo-5-((4-(4-bromophenyl)piperazin-1-yl)methyl)quinolin-8-ol]
disruption of unsurmountable tetramer ([1]; 0.8-3.2 μM): complete loss of this structure at 3.2 μM

Compound: Oc1c(Cl)cc(CN2CCOCC2)c2cccnc12 [Compound 4, 4-((7-chloro-8-hydroxyquinolin-1-ium-5-yl)methyl)morpholin-4-ium chloride]
IC50 [1, 4]: 930 nM | IC50 [1, 5]: 1260 nM | IC50 [1, 6]: 760 nM | IC50 [1, 7]: 510 nM | IC50 [1, 8]: 530 nM | IC50 [1, 9]: 550 nM | EphB1 Inhibition Percent, Inhibition of Association ONLY [2]: 34.2% | EphB1 Inhibition Percent, Inhibition of Association-Dissociation [2]: 48.4% | EphB2 Inhibition Percent, Inhibition of Association ONLY [3]: 64.1% | EphB2 Inhibition Percent, Inhibition of Association-Dissociation [3]: 78.1%

Compound: Oc1ccc(CN2CCOCC2)c2cccnc12 [Compound 1, 5-(morpholinomethyl)quinolin-8-ol]
tetramerization inhibitor activity [1]: only weak ability to inhibit formation of the EB2-EphB2 tetramer | IC50 [1, 4]: > 1600 nM | IC50 [1, 5]: > 1600 nM | IC50 [1, 6]: > 1600 nM | IC50 [1, 7]: > 1600 nM | IC50 [1, 8]: > 1600 nM | IC50 [1, 9]: > 1600 nM | IC50 [1, 10]: > 1600 nM | inhibition of EphrinB2-EphB interactions ([3]; 3.2 μM, EphB1, EphB2 and EphB4): generally less active towards all three interactions

EphB1 Inhibition Percent, Inhibition of Association ONLY [2]: 28.3% | EphB1 Inhibition Percent, Inhibition of Association-Dissociation [2]: 46.8% | EphB2 Inhibition Percent, Inhibition of Association ONLY [3]: 54.9% | EphB2 Inhibition Percent, Inhibition of Association-Dissociation [3]: 72.9%
Compound: Oc1ccc(CN2CCCCC2)c2cccnc12 [Compound 68, 5-(piperidin-1-ylmethyl)quinolin-8-ol, reference compound]

EphB1 Inhibition Percent, Inhibition of Association-Dissociation [2]: 51.5% and 43.1% | EphB2 Inhibition Percent, Inhibition of Association ONLY [3]: 59.7% and 46.7% | EphB2 Inhibition Percent, Inhibition of Association-Dissociation [3]: 77.8% and 71.3%
Compound: Oc1c(CN2CCCCC2)cc(Cl)c2cccnc12 [Compound 76, 5-chloro-7-(piperidin-1-ylmethyl)quinolin-8-ol, reference compound]
